The values below come from patent US4576947A, “Pharmaceutical compositions” (Hoechst Aktiengesellschaft, priority 1972, dated 1986).

Series [1] has as its system rate of blood circulation. The note with it: background statement, in words; cited from earlier work.
The conditions of series [2]: background statement, in words; cited from earlier work.
Series [3] has as its system cerebral blood flow of cats. The series is described as follows: Investigation of cerebral blood flow of cats (heat-conducting thermoprobe according to Hensel). The format is in vivo. The note with it: for Change of blood perfusion half-value time: action time; for Change of blood perfusion Δ λ: heat transfer factor λ. As for the experimental part:
The test animals are cats under chloralose urethane narcosis (70+200 mg/kg i.p.). The top of the skull is opened in the area of the frontal gyrus marginalis or suprasylvicus. […] The action time is given as the half value time and the intensity of action is determined according to Golenhofen et al. as a heat transfer factor λ. The recording was performed with thermoprobes using a two-channel Pluvograph of Hartmann & Braun, Frankfurt am Main, Germany. Other circulation parameters recorded at the same time were fed to a Hellige multi-channel recorder.

Series [4] can be described thus: Toxicity in mg/kg (mouse). The note with it: in vivo.
Another series relates to cerebral blood flow. As to the kind of experiment: Cerebral blood flow, statements in the description. The format is in vivo. The note with it: in words.

SMILES strings stand for the structures.

`CC(O)Cn1c(=O)c2c(ncn2C)n(C)c1=O` (stereo not shown) [1-(2-hydroxypropyl)-3,7-dimethylxanthine]: the pharmacological activity result in series [1] is reported as “reduced pharmacological activity”. Besides, the “water solubility and/or toxicity versus theobromine, theophylline and trialkylxanthines” value in series [2] is “greater degree of water solubility and/or lower toxicity than theobromine,theophylline and trialkylxanthines”. The “Change of blood perfusion half-value time” value is 0.50 min in series [3] (5 mg/kg i.v.), 1.50 min in series [3] (10 mg/kg i.v.), 17.5 min in series [3] (50 mg/kg i.v.) and 6.5 min in series [3] (100 mg/kg i.v.). The “Change of blood perfusion Δ λ” value is on record as -0.25 in series [3] (5 mg/kg i.v.), -0.50 in series [3] (10 mg/kg i.v.), -5.25 in series [3] (50 mg/kg i.v.) and -10.00 in series [3] (100 mg/kg i.v.).
As a reminder, the LD50 is the dose at which mortality reaches 50%. Read a high LD50 as lower toxicity. For the compound `CC(O)CCCCCn1cnc2c1c(=O)n(C)c(=O)n2C` (stereo not shown) [1,3-dimethyl-7-(6-hydroxyheptyl)-xanthine], the LD50 in series [4] (ip) was 250 to 500 mg/kg. Moreover, the “Change of blood perfusion half-value time” value is listed as 0.6 min in series [3] (1 mg/kg i.v.), 1.2 min in series [3] (2 mg/kg i.v.) and 1.8 min in series [3] (5 mg/kg i.v.). Besides, the “Change of blood perfusion Δ λ” value is on record as “+0.70” in series [3] (1 mg/kg i.v.), “+0.42” in series [3] (2 mg/kg i.v.) and “+1.17” in series [3] (5 mg/kg i.v.).
For `Cn1c(=O)c2[nH]cnc2n(C)c1=O.NCCN` [theophylline-ethylenediamine, 1,3-dimethylxanthine-ethylene-diamine], the LD50 in series [4] (ip) came out at 217 mg/kg. For the same compound, in the series with cerebral blood flow, the “action on cerebral blood flow” value was “increases the cerebral blood flow, but only to a limited extent and only for a short time”. Besides, the “Change of blood perfusion half-value time” value in series [3] (1 mg/kg i.v.) is on record as 1.8 min; in series [3] (2 mg/kg i.v.) it was 1.8 min; in series [3] (5 mg/kg i.v.) it was 3.3 min; in series [3] (10 mg/kg i.v.), 1.7 min. Besides, the “Change of blood perfusion Δ λ” value in series [3] (1 mg/kg i.v.) is given as “+0.19”; in series [3] (2 mg/kg i.v.), “+0.15”; in series [3] (5 mg/kg i.v.), “+0.18”; in series [3] (10 mg/kg i.v.) it was “+0.53”.
Turning to `Cn1c(=O)c2c(ncn2CCO)n(C)c1=O` [7-(2-hydroxyethyl)-1,3-dimethylxanthine], the “Change of blood perfusion half-value time” value was determined as 0.23 min in series [3] (5 mg/kg i.v.); 0.50 min in series [3] (10 mg/kg i.v.); 6.73 min in series [3] (25 mg/kg i.v.); 7.17 min in series [3] (50 mg/kg i.v.); 8.00 min in series [3] (100 mg/kg i.v.). For the same compound, the “Change of blood perfusion Δ λ” value in series [3] (5 mg/kg i.v.) is recorded as -0.50; in series [3] (10 mg/kg i.v.) it was -1.33; in series [3] (25 mg/kg i.v.), -2.17; in series [3] (50 mg/kg i.v.), -5.33; in series [3] (100 mg/kg i.v.), -6.00.
The compound `CC(O)CCCCn1c(=O)c2c(ncn2C)n(C)c1=O` (stereo not shown) [1-(5-hydroxyhexyl)-3,7-dimethylxanthine] showed an LD50 in series [4] (iv) of 195 mg/kg. Moreover, the “Change of blood perfusion half-value time” value in series [3] (3 mg/kg i.v.) is on record as 4.3 min; in series [3] (5 mg/kg i.v.) it was 5.0 min; in series [3] (10 mg/kg i.v.) it was 3.5 min. For the same compound, the figures for the “Change of blood perfusion Δ λ” value in series [3] (3 mg/kg i.v.), in series [3] (5 mg/kg i.v.) and in series [3] (10 mg/kg i.v.) were “+1.80”, “+1.55” and “+2.65”, respectively.
Regarding `Cn1c(=O)c2c(ncn2CC(O)CO)n(C)c1=O` (stereo not shown) [7-(2,3-dihydroxypropyl)-1,3-dimethylxanthine], the pharmacological activity entry in series [1] is given as “reduced pharmacological activity”. Moreover, in series [2], the “water solubility and/or toxicity versus theobromine, theophylline and trialkylxanthines” value was “greater degree of water solubility and/or lower toxicity than theobromine,theophylline and trialkylxanthines”. The “Change of blood perfusion half-value time” value is reported as 1.7 min in series [3] (10 mg/kg i.v.), 6.0 min in series [3] (25 mg/kg i.v.), 3.0 min in series [3] (50 mg/kg i.v.) and 3.0 min in series [3] (100 mg/kg i.v.). The “Change of blood perfusion Δ λ” value was -0.23 in series [3] (25 mg/kg i.v.), “+0.20” in series [3] (50 mg/kg i.v.) and -0.05 in series [3] (100 mg/kg i.v.).
For `CC(O)Cn1cnc2c1c(=O)n(C)c(=O)n2C` (stereo not shown) [7-(2-Hydroxypropyl)-1,3-dimethyl-xanthine], in series [1], the pharmacological activity entry is listed as “reduced pharmacological activity”. Besides, in series [2], the “water solubility and/or toxicity versus theobromine, theophylline and trialkylxanthines” value was “greater degree of water solubility and/or lower toxicity than theobromine,theophylline and trialkylxanthines”.
`CC(O)CCCCn1cnc2c1c(=O)n(C)c(=O)n2C` (stereo not shown) [1,3-dimethyl-7-(5-hydroxyhexyl)-xanthine] yielded an LD50 in series [4] (ip) of 250 to 500 mg/kg. In series [3] (5 mg/kg i.v.), the “Change of blood perfusion half-value time” value is reported as 1.8 min and the “Change of blood perfusion Δ λ” value is recorded as “+0.18”.
